Measured values: PubChem BioAssay (NCI)
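Step 1: Grow cells in 96-well plates. Step 2: Expose to compound for 48 hours at 5 concentrations. Step 3: Interpolate endpoints linearly; if unreached, use highest concentration. TGI: total growth inhibition.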

Columns and labels:
Test in all cases: inhibition of tumour cell growth, NCI panel, 48 h
NCI-H226 lung = test system: NCI-H226 lung
TK-10 renal = test system: TK-10 renal
SNB-75 CNS = test system: SNB-75 CNS
A549 NSCLC = test system: A549 NSCLC
DLD-1 colon = test system: DLD-1 colon
COLO 205 colon = test system: COLO 205 colon
CAKI-1 renal = test system: CAKI-1 renal
OVCAR-8 ovarian = test system: OVCAR-8 ovarian
SF-539 CNS = test system: SF-539 CNS
XF 498 CNS = test system: XF 498 CNS
K-562 leukemia = test system: K-562 leukemia
SR leukemia = test system: SR leukemia
SK-MEL-2 melanoma = test system: SK-MEL-2 melanoma
SF-295 CNS = test system: SF-295 CNS
KM20L2 colon = test system: KM20L2 colon
SK-MEL-28 melanoma = test system: SK-MEL-28 melanoma
OVCAR-5 ovarian = test system: OVCAR-5 ovarian
MOLT-4 leukemia = test system: MOLT-4 leukemia
IGROV1 ovarian = test system: IGROV1 ovarian
DMS 273 small cell lung = test system: DMS 273 small cell lung
NCI-H460 lung = test system: NCI-H460 lung
SN12C renal = test system: SN12C renal
M19-MEL melanoma = test system: M19-MEL melanoma
UACC-62 melanoma = test system: UACC-62 melanoma
UO-31 renal = test system: UO-31 renal
HT29 colon = test system: HT29 colon
SW-620 colon = test system: SW-620 colon
LXFL 529 NSCLC = test system: LXFL 529 NSCLC
MALME-3M melanoma = test system: MALME-3M melanoma
RXF 393 renal = test system: RXF 393 renal
NCI-H23 lung = test system: NCI-H23 lung
SF-268 CNS = test system: SF-268 CNS
ACHN renal = test system: ACHN renal
U251 CNS = test system: U251 CNS
UACC-257 melanoma = test system: UACC-257 melanoma
HOP-18 NSCLC = test system: HOP-18 NSCLC
HCC-2998 colon = test system: HCC-2998 colon
HCT-15 colon = test system: HCT-15 colon
KM12 colon = test system: KM12 colon
SNB-19 CNS = test system: SNB-19 CNS
SK-MEL-5 melanoma = test system: SK-MEL-5 melanoma
OVCAR-4 ovarian = test system: OVCAR-4 ovarian
HOP-62 NSCLC = test system: HOP-62 NSCLC
OVCAR-3 ovarian = test system: OVCAR-3 ovarian
M14 melanoma = test system: M14 melanoma
LOX IMVI melanoma = test system: LOX IMVI melanoma
RPMI-8226 leukemia = test system: RPMI-8226 leukemia
NCI-H522 lung = test system: NCI-H522 lung
HCT-116 colon = test system: HCT-116 colon
SNB-78 CNS = test system: SNB-78 CNS
SK-OV-3 ovarian = test system: SK-OV-3 ovarian
DMS 114 small cell lung = test system: DMS 114 small cell lung
786-0 renal = test system: 786-0 renal
HL-60(TB) leukemia = test system: HL-60(TB) leukemia
CCRF-CEM leukemia = test system: CCRF-CEM leukemia

Which TGI (NCI-H226 lung) does the source give for `CCCCCCCCCCCCCC(=O)OC1C(O)C(CO)OC(OC)C1NC(=O)N(CCCl)N=O` (centres undefined) here?
The TGI was over 100 µM.

What about the TGI (TK-10 renal) of the same compound?
Its TGI is over 100 µM.

What about the TGI (SNB-75 CNS) of the same compound?
Its TGI is over 100 µM.

And the TGI (A549 NSCLC)?
The TGI was over 100 µM.

And the TGI (DLD-1 colon)?
Its TGI is over 100 µM.

What about the TGI (COLO 205 colon) of the same compound?
Its TGI is over 100 µM.

What about the TGI (CAKI-1 renal) of the same compound?
Its TGI is over 100 µM.

What about the TGI (OVCAR-8 ovarian) of the same compound?
The TGI was over 100 µM.

What about the TGI (SF-539 CNS) of the same compound?
The TGI was 63.5 µM.

And the TGI (XF 498 CNS)?
The TGI was over 100 µM.

And the TGI (K-562 leukemia)?
Its TGI is over 100 µM.

And the TGI (SR leukemia)?
The TGI was 93.4 µM.

And the TGI (SK-MEL-2 melanoma)?
The TGI was over 100 µM.

What about the TGI (SF-295 CNS) of the same compound?
The TGI was over 100 µM.

And the TGI (KM20L2 colon)?
Its TGI is over 100 µM.

And the TGI (SK-MEL-28 melanoma)?
The TGI was over 100 µM.

What about the TGI (OVCAR-5 ovarian) of the same compound?
The TGI was over 100 µM.

And the TGI (MOLT-4 leukemia)?
The TGI was 59.8 µM.

And the TGI (IGROV1 ovarian)?
Its TGI is over 100 µM.

What about the TGI (DMS 273 small cell lung) of the same compound?
Its TGI is over 100 µM.

And the TGI (NCI-H460 lung)?
The TGI was over 100 µM.

And the TGI (SN12C renal)?
Its TGI is over 100 µM.

And the TGI (M19-MEL melanoma)?
Its TGI is over 100 µM.

What about the TGI (UACC-62 melanoma) of the same compound?
The TGI was over 100 µM.

And the TGI (UO-31 renal)?
The TGI was over 100 µM.

And the TGI (HT29 colon)?
Its TGI is over 100 µM.

What about the TGI (SW-620 colon) of the same compound?
Its TGI is over 100 µM.

And the TGI (LXFL 529 NSCLC)?
Its TGI is over 100 µM.

And the TGI (MALME-3M melanoma)?
Its TGI is over 100 µM.

What about the TGI (RXF 393 renal) of the same compound?
The TGI was over 100 µM.

And the TGI (NCI-H23 lung)?
Its TGI is over 100 µM.

What about the TGI (SF-268 CNS) of the same compound?
The TGI was over 100 µM.

What about the TGI (ACHN renal) of the same compound?
Its TGI is over 100 µM.

And the TGI (U251 CNS)?
The TGI was over 100 µM.

What about the TGI (UACC-257 melanoma) of the same compound?
Its TGI is 86.8 µM.

And the TGI (HOP-18 NSCLC)?
The TGI was over 100 µM.

What about the TGI (HCC-2998 colon) of the same compound?
The TGI was over 100 µM.

What about the TGI (HCT-15 colon) of the same compound?
Its TGI is over 100 µM.

What about the TGI (KM12 colon) of the same compound?
The TGI was over 100 µM.

And the TGI (SNB-19 CNS)?
Its TGI is over 100 µM.

What about the TGI (SK-MEL-5 melanoma) of the same compound?
Its TGI is over 100 µM.

What about the TGI (OVCAR-4 ovarian) of the same compound?
Its TGI is over 100 µM.

And the TGI (HOP-62 NSCLC)?
The TGI was over 100 µM.

And the TGI (OVCAR-3 ovarian)?
The TGI was over 100 µM.

And the TGI (M14 melanoma)?
Its TGI is over 100 µM.

What about the TGI (LOX IMVI melanoma) of the same compound?
The TGI was 89.9 µM.

What about the TGI (RPMI-8226 leukemia) of the same compound?
The TGI was over 100 µM.

And the TGI (NCI-H522 lung)?
The TGI was over 100 µM.

For `O=C(NN1C(=O)C(Cl)C1c1ccc(O)cc1)c1ccccc1O` (centres undefined), which TGI (HCT-116 colon) is on record?
The TGI was 28.5 µM.

What about the TGI (NCI-H226 lung) of the same compound?
Its TGI is 30.7 µM.

What about the TGI (TK-10 renal) of the same compound?
Its TGI is 70.6 µM.

What about the TGI (SNB-75 CNS) of the same compound?
The TGI was over 100 µM.

What about the TGI (A549 NSCLC) of the same compound?
Its TGI is 50 µM.

What about the TGI (DLD-1 colon) of the same compound?
Its TGI is 30.6 µM.

And the TGI (OVCAR-8 ovarian)?
The TGI was 30.8 µM.

And the TGI (SF-539 CNS)?
The TGI was 38.5 µM.

And the TGI (XF 498 CNS)?
Its TGI is 23.7 µM.

What about the TGI (K-562 leukemia) of the same compound?
Its TGI is over 100 µM.

What about the TGI (SK-MEL-2 melanoma) of the same compound?
Its TGI is 48.3 µM.

And the TGI (SF-295 CNS)?
The TGI was 33.9 µM.

And the TGI (SK-MEL-28 melanoma)?
Its TGI is 36.5 µM.

And the TGI (MOLT-4 leukemia)?
The TGI was over 100 µM.

What about the TGI (IGROV1 ovarian) of the same compound?
Its TGI is 27.5 µM.

What about the TGI (DMS 273 small cell lung) of the same compound?
Its TGI is 25.5 µM.

What about the TGI (NCI-H460 lung) of the same compound?
The TGI was 35.7 µM.

What about the TGI (SNB-78 CNS) of the same compound?
Its TGI is 65.4 µM.

And the TGI (SK-OV-3 ovarian)?
Its TGI is 59.5 µM.

What about the TGI (SN12C renal) of the same compound?
The TGI was 43.7 µM.

And the TGI (M19-MEL melanoma)?
The TGI was 40.6 µM.

What about the TGI (UACC-62 melanoma) of the same compound?
The TGI was 32.3 µM.

What about the TGI (UO-31 renal) of the same compound?
Its TGI is 29 µM.

What about the TGI (HT29 colon) of the same compound?
The TGI was 36.1 µM.

What about the TGI (LXFL 529 NSCLC) of the same compound?
Its TGI is 33.3 µM.

And the TGI (DMS 114 small cell lung)?
Its TGI is 29.6 µM.

And the TGI (MALME-3M melanoma)?
The TGI was 34.5 µM.

What about the TGI (RXF 393 renal) of the same compound?
Its TGI is 27 µM.

And the TGI (NCI-H23 lung)?
The TGI was 41.8 µM.

And the TGI (SF-268 CNS)?
The TGI was 41.2 µM.

What about the TGI (786-0 renal) of the same compound?
Its TGI is 33.5 µM.

What about the TGI (ACHN renal) of the same compound?
Its TGI is 34.5 µM.

And the TGI (U251 CNS)?
Its TGI is 27.3 µM.

And the TGI (UACC-257 melanoma)?
Its TGI is 55.9 µM.

And the TGI (HOP-18 NSCLC)?
The TGI was 30.4 µM.

What about the TGI (HCT-15 colon) of the same compound?
The TGI was 30.6 µM.

And the TGI (KM12 colon)?
Its TGI is 29.5 µM.

What about the TGI (SNB-19 CNS) of the same compound?
The TGI was 43.7 µM.

And the TGI (SK-MEL-5 melanoma)?
The TGI was 27.7 µM.

What about the TGI (OVCAR-4 ovarian) of the same compound?
Its TGI is 40.4 µM.

What about the TGI (OVCAR-3 ovarian) of the same compound?
Its TGI is 31.7 µM.

And the TGI (HL-60(TB) leukemia)?
The TGI was over 100 µM.

What about the TGI (CCRF-CEM leukemia) of the same compound?
The TGI was over 100 µM.

What about the TGI (M14 melanoma) of the same compound?
Its TGI is 38.4 µM.

And the TGI (LOX IMVI melanoma)?
Its TGI is 31.7 µM.

And the TGI (NCI-H522 lung)?
Its TGI is 34.5 µM.
